{"source": "patent US20060189634A1", "about": "“Fungicide mixtures” (priority 2003, published 2006)", "system": "Plasmopara viticola", "assay": "Activity against peronospora of grapevines caused by Plasmopara viticola (protective spray on potted vines)", "assay_type": "in vivo", "settings": "individual active compound, grapevine leaves cv. Müller-Thurgau, untreated control 81% infection", "procedure": "The active compounds, separately or jointly, were prepared as a stock solution comprising 0.25% by weight of active compound in acetone or DMSO. 1% by weight of the emulsifier Uniperol® EL (wetting agent having emulsifying and dispersant action based on ethoxylated alkylphenols) was added to this solution, and the mixture was diluted with water to the desired concentration.\nUse example—Activity against peronospora of grapevines caused by Plasmopara viticola\nLeaves of potted vines of the cultivar “Müller-Thurgau” were sprayed to runoff point with an aqueous suspension having the concentration of active compound stated below. The next day, the undersides of the leaves were inoculated with an aqueous zoospore suspension of Plasmopara viticola. The grapevines were then initially placed in a water-vapor-saturated chamber at 24° C. for 48 hours and then in a greenhouse at 20-30° C. for 5 days. After this period of time, the plants were again placed in a humid chamber for 16 hours to promote sporangiophore eruption. The extent of the development of the disease on the undersides of the leaves was then determined visually.\nThe visually determined percentages of infected leaf areas were converted into efficacies in % of the untreated control:\nThe efficacy (E) is calculated as follows using Abbot's formula: E=(1−α/β)−100 α corresponds to the fungicidal infection of the treated plants in % and β corresponds to the fungicidal infection of the untreated (control) plants in %\nAn efficacy of 0 means that the infection level of the treated plants corresponds to that of the untreated control plants; an efficacy of 100 means that the treated plants were not infected.\nThe expected efficacies of mixtures of active compounds were determined using Colby's formula (Colby, S. R. “Calculating synergistic and antagonistic responses of herbicide combinations”, Weeds, 15, 20-22, 1967) and compared with the observed efficacies.\nColby's formula: E=x+y−x·y/100 E expected efficacy, expressed in % of the untreated control, when using the mixture of the active compounds A and B at the concentrations a and b x efficacy, expressed in % of the untreated control, when using the active compound A at the concentration a y efficacy, expressed in % of the untreated control, when using the active compound B at the concentration b", "data": [{"smiles": "CC1CCN(c2c(-c3c(F)cccc3Cl)c(Cl)nc3ncnn23)CC1", "note": "[Comparison A]", "values": [{"measurement": "Efficacy in % of the untreated control", "setting": "4 ppm in the spray liquor", "value": 13, "unit": "%"}]}, {"smiles": "C[C@H](Nc1c(-c2c(F)cc(F)cc2F)c(Cl)nc2ncnn12)C(F)(F)F", "note": "[Comparison B]", "values": [{"measurement": "Efficacy in % of the untreated control", "setting": "4 ppm in the spray liquor", "value": 13, "unit": "%"}]}, {"smiles": "CC1CCN(c2c(-c3c(F)cc(F)cc3F)c(Cl)nc3ncnn23)CC1", "note": "[I, 5-chloro-7-(4-methylpiperidin-1-yl)-6-(2,4,6-trifluorophenyl)-[1,2,4]triazolo[1,5-a]pyrimidine]", "values": [{"measurement": "Efficacy in % of the untreated control", "setting": "4 ppm in the spray liquor", "value": 51, "unit": "%"}]}, {"smiles": "N#Cc1sc2c(=O)c3ccccc3c(=O)c=2sc1C#N", "note": "[II (dithianon), 5,10-dioxo-5,10-dihydronaphtho[2,3-b][1,4]dithiine-2,3-dicarbonitrile]", "values": [{"measurement": "Efficacy in % of the untreated control", "setting": "1 ppm in the spray liquor", "value": 1, "unit": "%"}, {"measurement": "Efficacy in % of the untreated control", "setting": "4 ppm in the spray liquor", "value": 13, "unit": "%"}, {"measurement": "Efficacy in % of the untreated control", "setting": "16 ppm in the spray liquor", "value": 13, "unit": "%"}]}]}
